Values of other authors in patent US20050203105A1, “Composition and method for controlling alcohol-induced facial flushing in susceptible humans” (priority 2003, published 2005).
Like-named read-outs stand apart in the source and are kept apart here.

Key:
[1] = tested on: QT interval; details: in vivo
[2] = for time to peak plasma levels: oral
[3] = target: H1 receptor (Homo sapiens, UniProt P35367)
[4] = tested on: muscarinic receptors; set-up: key: +++++ = Very high; +++ = high; ++ = moderate; + = low; ± = low to none
[5] = tested on: alcohol-induced flushing; details: for rise in skin oxygen tension after sherry: oral, 30 minutes before 30-50 ml of sherry
[6] = tested on: flushing responses to red wine, chocolate and hot water; details: one patient with carcinoid syndrome; two weeks of oral prior treatment
[7] = tested on: cytochrome P450 enzymes
[8] = for Half-life: increased in renal impairment (cimetidine: also hepatic impairment and the elderly); for Elimination, Urine, Unchanged, Oral / effect of food on absorption: oral
[9] = given with an MAOI
[10] = tested on: potassium rectifier currents
[11] = tested on: alcohol-induced flushing; details: for Facial flushing: 0.64 gm orally one hour before ethanol
[12] = dose range of 10 to 40 mg
[13] = tested on: alcohol-induced rosacea flushing; details: subcutaneous pretreatment; 360 ml of 6% ethanol; patients with rosacea
[14] = tested on: ethanol intoxication; details: intravenous

Chain of H1 receptor (P35367 whole entry): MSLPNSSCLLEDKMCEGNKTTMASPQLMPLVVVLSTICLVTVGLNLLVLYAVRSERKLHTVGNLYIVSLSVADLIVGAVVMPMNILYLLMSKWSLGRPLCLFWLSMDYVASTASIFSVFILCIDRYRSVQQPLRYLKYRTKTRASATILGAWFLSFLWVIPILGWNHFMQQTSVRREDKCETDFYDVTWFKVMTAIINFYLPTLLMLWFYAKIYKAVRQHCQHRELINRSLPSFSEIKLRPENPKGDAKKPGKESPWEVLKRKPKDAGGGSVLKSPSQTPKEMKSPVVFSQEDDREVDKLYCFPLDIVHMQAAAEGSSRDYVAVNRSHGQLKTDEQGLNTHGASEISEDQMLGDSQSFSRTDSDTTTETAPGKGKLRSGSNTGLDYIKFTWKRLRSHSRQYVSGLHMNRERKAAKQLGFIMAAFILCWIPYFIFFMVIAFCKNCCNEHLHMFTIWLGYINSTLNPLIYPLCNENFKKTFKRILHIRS

Structure (SMILES): COc1ccc(CCN2CCC(Nc3nc4ccccc4n3Cc3ccc(F)cc3)CC2)cc1 [Astemizole]
- QT prolongation, ventricular arrhythmias, torsade de pointes [1]: can cause QT interval prolongation/ventricular arrhythmias
- half-life, distribution phase ([2]; biphasic): 20 h
- protein bound ([2]; in vivo): 96.7%
- time to peak plasma levels [2]: ≤ 1 h
- reduction of absorption when taken with food ([2]; with food): 60%

Structure (SMILES): CN1CCC(=C2c3ccccc3CCc3cccnc32)CC1 [Azatadine]
- Antihistaminic activity [3]: ++
- Anticholinergic activity [4]: ++

Structure (SMILES): CN(C)CCC(c1ccc(Br)cc1)c1ccccn1 (centres unmarked) [Brompheniramine]
- Antihistaminic activity [3]: +++
- Anticholinergic activity [4]: ++

Structure (SMILES): CN(C)CCOC(c1ccc(Cl)cc1)c1ccccn1 (centres unmarked) [Carbinoxamine]
- Antihistaminic activity [3]: + to ++
- Anticholinergic activity [4]: +++

Structure (SMILES): CN(C)CCC(c1ccc(Cl)cc1)c1ccccn1 (centres unmarked) [Chlorpheniramine]
- sedative action of absorbed alcohol ([5]; in vivo): potentiates the sedative action of the alcohol absorbed
- rise in skin oxygen tension after sherry [5]: did not affect the rise in skin oxygen tension
- flushing response to red wine, chocolate and hot water challenges [6]: did not affect the flushing response

Structure (SMILES): CN/C(=N/CCSCc1nc[nH]c1C)NC#N [Cimetidine]
- rise in skin oxygen tension after sherry [5]: did noticeably reduce the increase in oxygen concentration
- effect on hepatic oxidative metabolism [7]: inhibits hepatic oxidative metabolism by most cytochrome P450 enzymes
- flushing response to red wine, chocolate and hot water challenges [6]: blocked the flushing responses to red wine and chocolate, but not to hot water
- Peak Plasma Concentration ([8]; 300 mg dose, dose dependent): 0.7 to 3.2 µg/mL
- Elimination, Urine, Unchanged, IV ([8]; IV): 75%
- Peak Plasma Concentration ([8]; IV): (3.5-7.5 IV) mcg/ml
- Bioavailability ([8]; in vivo): 60-70%
- Elimination, Metabolized ([8]; in vivo): 30-40%
- Protein Binding ([8]; in vivo): 13-25%
- Time to Peak Plasma Concentration ([8]; in vivo): 0.75 to 1.5 h
- Volume of Distribution ([8]; in vivo): 0.8 to 1.2 L/kg
- removal by hemodialysis or peritoneal dialysis ([8]; in vivo): not significantly removed by hemodialysis or peritoneal dialysis
- Half-life [8]: ≈2^2 hrs
- Elimination, Urine, Unchanged, Oral [8]: 48%
- effect of food on absorption [8]: unaffected by food

Structure (SMILES): CN(C)CC[C@@H](c1ccc(Cl)cc1)c1ccccn1 [Dexchlorpheniramine]
- interaction with an MAOI [9]: may cause severe hypotension

Structure (SMILES): NC(N)=Nc1nc(CSCCC(N)=NS(N)(=O)=O)cs1 [Famotidine]
- effect on hepatic oxidative metabolism [7]: do not seem to interfere with hepatic oxidation
- Peak Plasma Concentration ([8]; 40 mg dose, dose dependent): 0.076 to 0.1 µg/mL
- Elimination, Urine, Unchanged, IV ([8]; IV): 65-70%
- Bioavailability ([8]; in vivo): 40-45%
- Elimination, Metabolized ([8]; in vivo): 30-35%
- Protein Binding ([8]; in vivo): 15-20%
- Time to Peak Plasma Concentration ([8]; in vivo): 1 to 3 h
- Volume of Distribution ([8]; in vivo): 1.1 to 1.4 L/kg
- Half-life [8]: 2.5-3.5^3 hrs
- Elimination, Urine, Unchanged, Oral [8]: 25-30%

Structure (SMILES): CCOC(=O)N1CCC(=C2c3ccc(Cl)cc3CCc3cccnc32)CC1 [Loratadine, ethyl 4-(8-chloro-5,6-dihydro-11H-benzo[5,6]cyclohepta[1,2-b]pyridin-11-ylidene)-1-piperidinecarboxylate]
- potassium rectifier currents [10]: inhibit the potassium rectifier currents

Structure (SMILES): CN1CCC(CN2c3ccccc3Sc3ccccc32)C1 (centres unmarked) [Methdilazine]
- Antihistaminic activity [3]: ++ to +++
- Anticholinergic activity [4]: +++

Structure (SMILES): CNC(=C[N+](=O)[O-])NCCSCc1csc(CN(C)C)n1 [Nizatidine]
- Peak Plasma Concentration ([8]; 150 mg dose, dose dependent): 0.7 to 1.8 µg/mL
- Peak Plasma Concentration ([8]; 300 mg dose, dose dependent): 1.4 to 3.6 µg/mL
- Plasma concentrations 12 hours after administration ([8]; 12 hours after administration): less than 10 mcg/L
- Bioavailability ([8]; in vivo): >90%
- Elimination, Metabolized ([8]; in vivo): <18%
- Protein Binding ([8]; in vivo): ≈35%
- Time to Peak Plasma Concentration ([8]; in vivo): 0.5 to 3 h
- Volume of Distribution ([8]; in vivo): 0.8 to 1.5 L/kg
- Half-life [8]: 1-2^3 hrs
- Elimination, Urine, Unchanged, Oral [8]: 60%

Structure (SMILES): CN1CCC2=C(C1)C(c1ccccc1)c1ccccc12 (centres unmarked) [Phenindamine]
- Antihistaminic activity [3]: ++
- Anticholinergic activity [4]: ++

Structure (SMILES): CNC(=C[N+](=O)[O-])NCCSCc1ccc(CN(C)C)o1 [Ranitidine]
- effect on hepatic oxidative metabolism [7]: do not seem to interfere with hepatic oxidation
- Bioavailability ([8]; IM): (90-100 IM) %
- Peak Plasma Concentration ([8]; IM): (0.58 IM) mcg/ml
- Time to Peak Plasma Concentration ([8]; IM): (0.25 IM) hrs
- Elimination, Urine, Unchanged, IV ([8]; IV): 68-79%
- Bioavailability ([8]; in vivo): 50-160%
- Elimination, Metabolized ([8]; in vivo): <10%
- Protein Binding ([8]; in vivo): 15%
- Time to Peak Plasma Concentration ([8]; in vivo): 1 to 3 h
- Volume of Distribution ([8]; in vivo): 1.2 to 1.9 L/kg
- Half-life [8]: 2-3^3 hrs
- Peak Plasma Concentration ([8]; no dose given, dose dependent): 0.44 to 0.55 µg/mL
- Elimination, Urine, Unchanged, Oral [8]: 30-35%
- effect of food on absorption [8]: not significantly impaired by the administration of food

Structure (SMILES): CC(C)(C)c1ccc(C(O)CCCN2CCC(C(O)(c3ccccc3)c3ccccc3)CC2)cc1 (centres unmarked) [Terfenadine]
- single overdose associated with serious cardiovascular adverse events [1]: ≥ 360 mg
- dose eliminated via the urine ([2]; in vivo): 40%
- elimination half-life ([2]; in vivo): 20 h
- fecal excretion of the dose ([2]; in vivo): 60%
- time to peak plasma levels [2]: 2 h

Structure (SMILES): CC(CN(C)C)CN1c2ccccc2Sc2ccccc21 (centres unmarked) [Trimeprazine]
- Antihistaminic activity [3]: ++ to +++
- Anticholinergic activity [4]: +++

Structure (SMILES): CN(C)CCN(Cc1ccccc1)c1ccccn1 [Tripelennamine]
- Antihistaminic activity [3]: + to ++
- Anticholinergic activity [4]: ±

Structure (SMILES): Cc1ccc(/C(=C\CN2CCCC2)c2ccccn2)cc1 [Triprolidine]
- Antihistaminic activity [3]: ++ to +++
- Anticholinergic activity [4]: ++

Structure (SMILES): CC(=O)Oc1ccccc1C(=O)O [aspirin, acetylsalicylic acid]
- Body sway ([11]; both groups of subjects): reduced
- alcohol induced increase in heart rate ([11]; flushing group): reduced
- Facial flushing ([11]; flushing group): markedly reduced
- Facial flushing ([11]; non-flushing Occidentals): slightly increased

Structure (SMILES): Clc1cccc(Cl)c1N=C1NCCN1 [clonidine]
- flushing response to red wine, chocolate and hot water challenges [6]: blocked the flushing responses to red wine and chocolate, but not to hot water

Structure (SMILES): Clc1ccc2c(c1)CCc1cccnc1C2=C1CCNCC1 [desloratadine, descarboethoxyloratadine]
- dose dependence of pharmacokinetics [12]: independent of dose

Structure (SMILES): C=CCN1CC[C@]23c4c5ccc(O)c4O[C@H]2C(=O)CC[C@@]3(O)[C@H]1C5 [naloxone]
- alcohol-induced rosacea flushing (AIRF) [13]: blocked
- impairment by ethanol (typing errors) ([14]; CPAF group): reversed this effect
- impairment by ethanol (typing errors) ([14]; non-flushing group): no effect
